# Values quoted from earlier work in patent publication US20060142288A1, “Combinations and methods for headaches” (priority 2004, published 2006).
# Tests used:
# canine COX-3 = target: T1, canine COX-3 (Canis lupus familiaris, UniProt Q8HZR1); details: canine COX-3 compared with murine COX-1 and COX-2
# T1 sequence (Q8HZR1 1-633 isoform Q8HZR1-2): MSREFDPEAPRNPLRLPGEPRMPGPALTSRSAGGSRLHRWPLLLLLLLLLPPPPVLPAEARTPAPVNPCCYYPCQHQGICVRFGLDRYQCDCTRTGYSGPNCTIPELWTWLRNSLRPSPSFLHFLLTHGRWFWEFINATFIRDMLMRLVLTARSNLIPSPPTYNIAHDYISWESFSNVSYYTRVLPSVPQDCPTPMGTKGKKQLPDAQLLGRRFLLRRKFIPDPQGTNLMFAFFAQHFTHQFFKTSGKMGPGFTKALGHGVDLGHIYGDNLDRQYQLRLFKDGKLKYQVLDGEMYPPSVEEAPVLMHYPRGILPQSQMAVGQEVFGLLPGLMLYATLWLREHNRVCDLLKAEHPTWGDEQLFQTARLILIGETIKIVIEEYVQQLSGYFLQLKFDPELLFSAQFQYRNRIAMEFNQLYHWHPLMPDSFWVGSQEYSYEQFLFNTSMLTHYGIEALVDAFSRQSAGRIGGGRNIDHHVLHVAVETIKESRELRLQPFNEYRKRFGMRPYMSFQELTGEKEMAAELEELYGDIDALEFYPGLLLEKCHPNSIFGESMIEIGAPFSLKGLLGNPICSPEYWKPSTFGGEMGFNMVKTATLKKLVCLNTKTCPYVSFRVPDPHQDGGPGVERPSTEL
# [1] = 500 mg daily, six year trial
# [2] = 650 mg/day, migraine patients
# [3] = 13.5 mg/kg/day or ~1 g per day
# [4] = ASA 500 mg TID, metoprolol in the same study
smiles,measurement,setting,value
CCOc1ccc(NC(C)=O)cc1 [phenacetin],selective inhibition of COX-3,canine COX-3,selectively inhibit
CC(=O)Nc1ccc(O)cc1 [acetaminophen],selective inhibition of COX-3,canine COX-3,selectively inhibit
"CC(=O)Oc1ccccc1C(=O)O [ASA, acetylsalicyclic acid]",reduction of the incidence of migraine,[1],30%
same,patients with a reduction of more than 50% in headache frequency,[2],9 of 12
same,overall migraine frequency,"500 mg TID, p<0.001",reduced significantly
same,subjects with a reduction of attacks >50% (number of subjects),[4],3 of 22
same,subjects with a reduction of attacks >50% (percent of subjects),[4],14%
same,"frequency, severity and duration of migraine attacks",[3],significantly decrease
Cc1cc(=O)n(-c2ccccc2)n1C [antipyrine],selective inhibition of COX-3,canine COX-3,selectively inhibit
Cc1c(N(C)CS(=O)(=O)[O-])c(=O)n(-c2ccccc2)n1C.[Na+] [dipyrone],selective inhibition of COX-3,canine COX-3,selectively inhibit
